# Test system: HCT-15
# Assay: SRB 48 h growth assay, Colon HCT-15
# Format: cell-based, human
# Conditions: HCT-15, Colon
row,SMILES,Log10 TGI50
1,"C#Cc1ccc(-n2c(/C=C/c3ccc(O)cc3)nc3ncccc3c2=O)cc1 [4b, (E)-3-(4-Ethynylphenyl)-2-(4-hydroxystyryl)pyrido[2,3-d]pyrimidin-4(3H)-one]",>−4.00

# Same assay, conditions: Homo sapiens, HCT-15, Colon, read-out: Growth Inhibition GI50
row,SMILES,GI50 [µM]
1,"C#Cc1ccc(-n2c(/C=C/c3ccc(O)cc3)nc3ncccc3c2=O)cc1 [4b, (E)-3-(4-Ethynylphenyl)-2-(4-hydroxystyryl)pyrido[2,3-d]pyrimidin-4(3H)-one]",4.65

# Same assay, conditions: Homo sapiens, HCT-15, Colon, read-out: Log10 GI50 (converted)
row,SMILES,GI50 [µM]
1,"C#Cc1ccc(-n2c(/C=C/c3ccc(O)cc3)nc3ncccc3c2=O)cc1 [4b, (E)-3-(4-Ethynylphenyl)-2-(4-hydroxystyryl)pyrido[2,3-d]pyrimidin-4(3H)-one]",4.68

# Same assay, conditions: Homo sapiens, HCT-15, Colon, read-out: Log10 LC50 (converted)
row,SMILES,CC50 [µM]
1,"C#Cc1ccc(-n2c(/C=C/c3ccc(O)cc3)nc3ncccc3c2=O)cc1 [4b, (E)-3-(4-Ethynylphenyl)-2-(4-hydroxystyryl)pyrido[2,3-d]pyrimidin-4(3H)-one]",> 100

# Test system: NCI-H460
# Assay: SRB 48 h growth assay, Non-small Cell Lung NCI-H460
# Format: cell-based, human
# Conditions: not given
row,SMILES,Log10 TGI50
1,"C#Cc1ccc(-n2c(/C=C/c3ccc(O)cc3)nc3ncccc3c2=O)cc1 [4b, (E)-3-(4-Ethynylphenyl)-2-(4-hydroxystyryl)pyrido[2,3-d]pyrimidin-4(3H)-one]",−4.85

# Same assay, conditions: Homo sapiens, read-out: Growth Inhibition GI50
row,SMILES,GI50 [µM]
1,"C#Cc1ccc(-n2c(/C=C/c3ccc(O)cc3)nc3ncccc3c2=O)cc1 [4b, (E)-3-(4-Ethynylphenyl)-2-(4-hydroxystyryl)pyrido[2,3-d]pyrimidin-4(3H)-one]",3.33

# Same assay, conditions: Homo sapiens, read-out: Log10 GI50 (converted)
row,SMILES,GI50 [µM]
1,"C#Cc1ccc(-n2c(/C=C/c3ccc(O)cc3)nc3ncccc3c2=O)cc1 [4b, (E)-3-(4-Ethynylphenyl)-2-(4-hydroxystyryl)pyrido[2,3-d]pyrimidin-4(3H)-one]",3.31

# Same assay, conditions: Homo sapiens, read-out: Log10 LC50 (converted)
row,SMILES,LC50 [µM]
1,"C#Cc1ccc(-n2c(/C=C/c3ccc(O)cc3)nc3ncccc3c2=O)cc1 [4b, (E)-3-(4-Ethynylphenyl)-2-(4-hydroxystyryl)pyrido[2,3-d]pyrimidin-4(3H)-one]",> 100

# Test system: T-47D
# Assay: SRB 48 h growth assay, Breast T-47D
# Format: cell-based, human
# Conditions: not given
row,SMILES,Log10 TGI50
1,"C#Cc1ccc(-n2c(/C=C/c3ccc(O)cc3)nc3ncccc3c2=O)cc1 [4b, (E)-3-(4-Ethynylphenyl)-2-(4-hydroxystyryl)pyrido[2,3-d]pyrimidin-4(3H)-one]",>−4.00

# Same assay, conditions: Homo sapiens, T47D, read-out: Growth Inhibition GI50
row,SMILES,GI50 [µM]
1,"C#Cc1ccc(-n2c(/C=C/c3ccc(O)cc3)nc3ncccc3c2=O)cc1 [4b, (E)-3-(4-Ethynylphenyl)-2-(4-hydroxystyryl)pyrido[2,3-d]pyrimidin-4(3H)-one]",4.63

# Same assay, conditions: Homo sapiens, T47D, read-out: Log10 GI50 (converted)
row,SMILES,GI50 [µM]
1,"C#Cc1ccc(-n2c(/C=C/c3ccc(O)cc3)nc3ncccc3c2=O)cc1 [4b, (E)-3-(4-Ethynylphenyl)-2-(4-hydroxystyryl)pyrido[2,3-d]pyrimidin-4(3H)-one]",4.68

# Same assay, conditions: Homo sapiens, T47D, read-out: Log10 LC50 (converted)
row,SMILES,CC50 [µM]
1,"C#Cc1ccc(-n2c(/C=C/c3ccc(O)cc3)nc3ncccc3c2=O)cc1 [4b, (E)-3-(4-Ethynylphenyl)-2-(4-hydroxystyryl)pyrido[2,3-d]pyrimidin-4(3H)-one]",> 100

# Test system: MOLT-4
# Assay: SRB 48 h growth assay, Leukemia MOLT-4
# Format: cell-based, human
# Conditions: Homo sapiens, MOLT-4, Leukemia, read-out: Growth Inhibition GI50
row,SMILES,GI50 [µM]
1,"C#Cc1ccc(-n2c(/C=C/c3ccc(O)cc3)nc3ncccc3c2=O)cc1 [4b, (E)-3-(4-Ethynylphenyl)-2-(4-hydroxystyryl)pyrido[2,3-d]pyrimidin-4(3H)-one]",7.35

# Same assay, conditions: Homo sapiens, MOLT-4, Leukemia, read-out: Log10 GI50 (converted)
row,SMILES,GI50 [µM]
1,"C#Cc1ccc(-n2c(/C=C/c3ccc(O)cc3)nc3ncccc3c2=O)cc1 [4b, (E)-3-(4-Ethynylphenyl)-2-(4-hydroxystyryl)pyrido[2,3-d]pyrimidin-4(3H)-one]",7.41

# Same assay, conditions: Homo sapiens, MOLT-4, Leukemia, read-out: Log10 LC50 (converted)
row,SMILES,CC50 [µM]
1,"C#Cc1ccc(-n2c(/C=C/c3ccc(O)cc3)nc3ncccc3c2=O)cc1 [4b, (E)-3-(4-Ethynylphenyl)-2-(4-hydroxystyryl)pyrido[2,3-d]pyrimidin-4(3H)-one]",> 100

# Same assay, conditions: MOLT-4, Leukemia
row,SMILES,Log10 TGI50
1,"C#Cc1ccc(-n2c(/C=C/c3ccc(O)cc3)nc3ncccc3c2=O)cc1 [4b, (E)-3-(4-Ethynylphenyl)-2-(4-hydroxystyryl)pyrido[2,3-d]pyrimidin-4(3H)-one]",>−4.00

# Test system: SF-268
# Assay: SRB 48 h growth assay, CNS SF-268
# Format: cell-based, human
# Conditions: Homo sapiens, SF-268, CNS, read-out: Growth Inhibition GI50
row,SMILES,GI50 [µM]
1,"C#Cc1ccc(-n2c(/C=C/c3ccc(O)cc3)nc3ncccc3c2=O)cc1 [4b, (E)-3-(4-Ethynylphenyl)-2-(4-hydroxystyryl)pyrido[2,3-d]pyrimidin-4(3H)-one]",5.24

# Same assay, conditions: Homo sapiens, SF-268, CNS, read-out: Log10 GI50 (converted)
row,SMILES,GI50 [µM]
1,"C#Cc1ccc(-n2c(/C=C/c3ccc(O)cc3)nc3ncccc3c2=O)cc1 [4b, (E)-3-(4-Ethynylphenyl)-2-(4-hydroxystyryl)pyrido[2,3-d]pyrimidin-4(3H)-one]",5.25

# Same assay, conditions: Homo sapiens, SF-268, CNS, read-out: Log10 LC50 (converted)
row,SMILES,CC50 [µM]
1,"C#Cc1ccc(-n2c(/C=C/c3ccc(O)cc3)nc3ncccc3c2=O)cc1 [4b, (E)-3-(4-Ethynylphenyl)-2-(4-hydroxystyryl)pyrido[2,3-d]pyrimidin-4(3H)-one]",> 100

# Same assay, conditions: SF-268, CNS
row,SMILES,Log10 TGI50
1,"C#Cc1ccc(-n2c(/C=C/c3ccc(O)cc3)nc3ncccc3c2=O)cc1 [4b, (E)-3-(4-Ethynylphenyl)-2-(4-hydroxystyryl)pyrido[2,3-d]pyrimidin-4(3H)-one]",−4.17

# Test system: U251
# Assay: SRB 48 h growth assay, CNS U251
# Format: cell-based, human
# Conditions: not given
row,SMILES,Log10 TGI50
1,"C#Cc1ccc(-n2c(/C=C/c3ccc(O)cc3)nc3ncccc3c2=O)cc1 [4b, (E)-3-(4-Ethynylphenyl)-2-(4-hydroxystyryl)pyrido[2,3-d]pyrimidin-4(3H)-one]",>−4.00

# Same assay, conditions: Homo sapiens, U-251, read-out: Growth Inhibition GI50
row,SMILES,GI50 [µM]
1,"C#Cc1ccc(-n2c(/C=C/c3ccc(O)cc3)nc3ncccc3c2=O)cc1 [4b, (E)-3-(4-Ethynylphenyl)-2-(4-hydroxystyryl)pyrido[2,3-d]pyrimidin-4(3H)-one]",4.02

# Same assay, conditions: Homo sapiens, U-251, read-out: Log10 GI50 (converted)
row,SMILES,GI50 [µM]
1,"C#Cc1ccc(-n2c(/C=C/c3ccc(O)cc3)nc3ncccc3c2=O)cc1 [4b, (E)-3-(4-Ethynylphenyl)-2-(4-hydroxystyryl)pyrido[2,3-d]pyrimidin-4(3H)-one]",3.98

# Same assay, conditions: Homo sapiens, U-251, read-out: Log10 LC50 (converted)
row,SMILES,CC50 [µM]
1,"C#Cc1ccc(-n2c(/C=C/c3ccc(O)cc3)nc3ncccc3c2=O)cc1 [4b, (E)-3-(4-Ethynylphenyl)-2-(4-hydroxystyryl)pyrido[2,3-d]pyrimidin-4(3H)-one]",> 100

# Test system: HT-29
# Assay: SRB 48 h growth assay, Colon HT-29
# Format: cell-based, human
# Conditions: HT-29, Colon
row,SMILES,Log10 TGI50
1,"C#Cc1ccc(-n2c(/C=C/c3ccc(O)cc3)nc3ncccc3c2=O)cc1 [4b, (E)-3-(4-Ethynylphenyl)-2-(4-hydroxystyryl)pyrido[2,3-d]pyrimidin-4(3H)-one]",>−4.00

# Same assay, conditions: Homo sapiens, HT-29, Colon, read-out: Growth Inhibition GI50
row,SMILES,GI50 [µM]
1,"C#Cc1ccc(-n2c(/C=C/c3ccc(O)cc3)nc3ncccc3c2=O)cc1 [4b, (E)-3-(4-Ethynylphenyl)-2-(4-hydroxystyryl)pyrido[2,3-d]pyrimidin-4(3H)-one]",52.8

# Same assay, conditions: Homo sapiens, HT-29, Colon, read-out: Log10 GI50 (converted)
row,SMILES,GI50 [µM]
1,"C#Cc1ccc(-n2c(/C=C/c3ccc(O)cc3)nc3ncccc3c2=O)cc1 [4b, (E)-3-(4-Ethynylphenyl)-2-(4-hydroxystyryl)pyrido[2,3-d]pyrimidin-4(3H)-one]",52.5

# Same assay, conditions: Homo sapiens, HT-29, Colon, read-out: Log10 LC50 (converted)
row,SMILES,CC50 [µM]
1,"C#Cc1ccc(-n2c(/C=C/c3ccc(O)cc3)nc3ncccc3c2=O)cc1 [4b, (E)-3-(4-Ethynylphenyl)-2-(4-hydroxystyryl)pyrido[2,3-d]pyrimidin-4(3H)-one]",> 100

# Test system: SK-MEL-2
# Assay: SRB 48 h growth assay, Melanoma SK-MEL-2
# Format: cell-based, human
# Conditions: Homo sapiens, SK-MEL-2, Melanoma, read-out: Growth Inhibition GI50
row,SMILES,GI50 [µM]
1,"C#Cc1ccc(-n2c(/C=C/c3ccc(O)cc3)nc3ncccc3c2=O)cc1 [4b, (E)-3-(4-Ethynylphenyl)-2-(4-hydroxystyryl)pyrido[2,3-d]pyrimidin-4(3H)-one]",3.95

# Same assay, conditions: Homo sapiens, SK-MEL-2, Melanoma, read-out: Log10 GI50 (converted)
row,SMILES,GI50 [µM]
1,"C#Cc1ccc(-n2c(/C=C/c3ccc(O)cc3)nc3ncccc3c2=O)cc1 [4b, (E)-3-(4-Ethynylphenyl)-2-(4-hydroxystyryl)pyrido[2,3-d]pyrimidin-4(3H)-one]",3.98

# From US9783537B2, “3-(4-ethylnylphenyl) pyridopyrimidinone compounds and process for preparation thereof useful as potential anticancer agents” (Council of Scientific & Industrial Research, priority 2013, dated 2017)
